Measured values taken from USRE50172E1, “In vitro maturation of a mammalian cumulus oocyte complex” (Vrije Universiteit Brussel, priority 2014, dated 2024).
Entries after “also recorded” stand apart in the source; their conditions may differ. No end group written: not given here.

Legend:
Assay type in all cases: cell-based, mouse
Preovulatory COCs [1] = test: Meiotic resumption after 18 hours, CNP-53 dose range (Example 5)
Protocol: The materials and methods used in this further example are accordingly in common with the materials and methods used in Example 4 but for the use of CNP-53 instead. Cumulus-oocyte complexes from 24-25 day-old mice were isolated from in vivo grown antral follicles post 48 h eCG stimulation. Mice were injected with 2.5 IU eCG when they were 22-23 days-old. Intact COCs were put in culture for a period of 18 hours in presence of the following doses of CNP-53: • Control (No CNP)* • 0.1 nM • 1 nM • 10 nM • 50 nM • 100 nM • 1 μM • Control 25 nM CNP-22*
*Two control conditions were included: 1) 25 nM CNP-22 (standard dose known and used in previous experiments to maintain meiotic arrest), 2) a control condition where CNP is not present in the culture media.
Differences in the rate of oocyte meiotic resumption (per meiotic stage) were assessed by ANOVA followed by a Tukey's Multiple Comparison Test, p<0.001. Percentages data were transformed (arcsine) before performing statistical analysis.

Pre-ovulatory COCs [2] = test: Meiotic arrest of pre-ovulatory COCs cultured 18 hours with CNP-22 (Example 1)
Source text: (§1) For the collection of immature COCs, compact COCs of the first wave of follicular development were collected from small antral follicles of pre-pubertal mice (19-21 days-old), without prior gonadotropin administration. For the collection of pre-ovulatory COCs (controls), compact COCs were collected by puncturing large antral follicles of pre-pubertal female mice (25-27 days-old) following 48 hrs of priming with 2,5IU 2.5 IU equine Chronic Gonadotropin (eCG, Folligon, Intervet, Oss, The Netherlands). Collection medium consisted of Leibovitz L-15, containing 10% Heat-inactivated Foetal Bovine Serum (FBS), 100lU/ml 100 IU/ml penicillin, 100 μg/ml streptomycin (all from Life Technologies, Gent, Belgium) and supplemented with 200 μM 3-Isobutyl-1-methylxanthine (IBMX; Sigma, Schnelldorf, Germany) to prevent meiosis reinitiation during the period of collection and pre culture handling.
(§2) Basal culture medium for the culture of COCs (Pre-IVM and IVM phases) consisted of α-MEM, 2.5% FBS (both from Life Technologies, Gent, Belgium) and 5 ng/mL Insulin, 5 ug/mt ug/ml. Apo-Transferrin, 5 ng/mL Sodium selenite (All from Sigma, Schnelldorf, Germany).
(§3) At specified time-points oocytes were mechanically freed from compact or expanded cumulus cells by using a mouth controlled fine bore glass pipette. Meiotic reinitiation was analyzed by assessing the nuclear maturational stage under an inverted microscope equipped with a Hoffman modulation contrast system (Nikon, Tokyo, Japan). Nuclear maturation was scored as GV (Germinal vesicle stage), GVBD (when GV non visible), PB (first polar body observed in perivitelline space) or DEG (when the oocyte was degenerated).
(§4) Pre-ovulatory COCs, retrieved from gonadotropin-primed mice (aged 26-27 days-old), were placed in culture, for 18 hours, in presence of 0 (Control), 1, 10, 100 nM CNP-22 and in combination with 4 ng/mL EGF.

Pre-ovulatory COCs [3] = test: EGFR-dependent meiotic resumption of pre-ovulatory COCs in presence of CNP-22 and EGF; settings: for PB rate: 18 hours
Source text: as §1, §2
For experiments involving IVM, recombinant Epidermal growth Factor (r-EGF) (Roche; Mannheim, Germany) and recombinant mouse Epiregulin (EREG) (R&D systems Europe; Oxon, United Kingdom) were used as ovulatory stimuli and the cultures lasted 18 hrs.
as §3, §4
Pre-ovulatory COCs, retrieved from gonadotropin-primed mice, were placed in culture in absence (controls) or presence of 25 nM CNP-22 4 ng/mL EGF, and meiotic maturation was assessed at 2, 4 and 6 hours. While meiotic resumption increased from 2 to 6 hours in the control group, few GVBDs were induced in the CNP-22 EGF treated group (≤11%), within the same period of time (FIG. 2A).

[4] = system: cumulus-enclosed oocytes from early antral follicles; test: Developmental competence after capacitation culture with CNP or Cilostamide, IVM and IVF (Example 3); settings: 48 hours capacitation culture, IVM with EGF, IVF
Protocol: Immature cumulus-oocyte complexes were isolated from early antral follicles (from unstimulated 19-20 day-old mice). COCs were placed in basal culture medium for a period of 48 hours in presence of either CNP or Cilostamide (PDE3-Inhibitor); similar to example 2.
Following the capacitation culture, COCs were matured in presence of Epidermal growth factor (EGF) and in-vitro fertilized. Post fertilization embryo development was evaluated.
Acquisition of oocyte competence under each condition was evaluated by their capacity to mature, fertilize (2-cell rate) and to produce good quality blastocyst (by day 5 of embryo culture).
Differences in the rate of fertilization and blastocyst formation between CNP and Cilostamide groups were assessed by chi-square.

[5] = system: COCs from early antral follicles; test: Cumulus-oocyte connections (transzonal projections) after capacitation culture with CNP or PDE3 inhibitor (Example 2); settings: 48 h culture, F-actin staining of zona pellucida, no FSH; listed as CNP
Protocol: Basal culture medium for the culture of COCs (Pre-IVM and IVM phases) consisted of α-MEM, 2.5% FBS (both from Life Technologies, Gent, Belgium) and 5 ng/mL Insulin, 5 ug/mL Apo-Transferrin, 5 ng/mL Sodium selenite (All from Sigma, Schnelldorf, Germany). Capacitation medium consisted of basal medium supplemented with either 25 nM CNP or 1 μM Org9935 or 1 μM Cilostamide in combination with 10 nM E2 17-β-estradiol. CNP was obtained from Phoenix Europe (Karlsruhe, Germany), while Cilostamide was obtained from Enzo Life Sciences (Antwerpen, Belgium). Since the aim of the experiment was to make evident potential differences between CNP and PDE3-inhibitors, avoiding potential interference of FSH was crucial, therefore the latter was omitted from capacitation medium. When tested in the presence of FSH, the latter masked the effect of CNP on the connection between the oocyte and surrounding layers of cumulus cells, in having itself a contribution to said connection which is even apparent in the presence of a PDE3-inhibitor (data not shown). […]
In FIG. 7 average pixel intensity was used as a tool to quantify positive actin staining (TZP) going through zona pellucida. […]

Preovulatory COCs [6] = test: Meiotic resumption after 18 hours, CNP-22 dose range (Example 4)
Protocol: The materials and methods used in this further example are accordingly in common with the materials and methods used in Example 1. Cumulus-oocyte complexes from 24-26 day-old mice were isolated from in vivo grown antral follicles post 48 h equine Chronic Gonadotropin stimulation (eCG, Folligon, Intervet, Oss, The Netherlands). Mice were injected with 2.5 IU eCG when they were 22-24 days-old. Intact COCs with at least 2 layers of cumulus cells were put in culture for a period of 18 hours in presence of the following doses of CNP: • Control (No CNP)* • 0.1 nM** • 1 nM • 10 nM • 50 nM** • 100 nM • 1 μM**
COCs were collected and cultured according to the previous dose experiments in mice, provided in the Example 1.
Differences in the rate of oocyte meiotic resumption (per meiotic stage) were assessed by ANOVA followed by a Tukey's Multiple Comparison Test, p<0.01. Percentages data were transformed (arcsine) before performing statistical analysis.
Oocyte meiotic arrest was confirmed by the presence of an intact germinal vesicle (GV) under the inverted microscope, […]

Immature COCs = test: Meiotic arrest of immature COCs from small antral follicles, 48 hours culture
Source text: as §1, §2
as §3, with “degenerated). […]” for “degenerated).”
Immature COCs were retrieved from small antral follicles of female mice aged 19-20 days-old and placed in culture for 48 hours in presence of 25 nM CNP-22 and presence or absence of 10 nM 17-β-estradiol; additionally the effects of the further addition of 2.5 or 5 mlU/mL mIU/ml FSH and/or 50 ng/mL GDF9 were evaluated.

[7] = 1 nM, 10 nM, 50 nM and 100 nM, 18 hours

C-type natriuretic peptide (GLSKGCFGLKLDRIGSMSGLGC; ends and bridges not checked; cysteine pairing not given here; UniProt P23582 105-126, looked up) [CNP-22, 22 amino acid C-type natriuretic peptide, obtained from Phoenix Europe]
oocytes under meiotic arrest (GV rate) (Preovulatory COCs [1]; 25 nM CNP-22 positive control, 18 hours): 75%
GV rate at the end of culture (Pre-ovulatory COCs [2]; 1 nM CNP-22, 18 hours): 48%
GV rate at the end of culture (Pre-ovulatory COCs [2]; 10 nM CNP-22, 18 hours): 93%
GV rate at the end of culture (Pre-ovulatory COCs [2]; 100 nM CNP-22, 18 hours): 96%
time meiotic arrest is maintained (Pre-ovulatory COCs [2]; pre-ovulatory COCs): at least 24 hours
PB rate (Pre-ovulatory COCs [3]; 1 nM CNP-22 with 4 ng/mL EGF): 92%
PB rate (Pre-ovulatory COCs [3]; 10 nM CNP-22 with 4 ng/mL EGF): 35%
GVBDs induced (Pre-ovulatory COCs [3]; 25 nM CNP-22, 4 ng/mL EGF, 2 to 6 hours): ≤ 11%
occurrence of PB oocytes (Pre-ovulatory COCs [3]; 25 nM CNP-22, 4 ng/mL EGF, 24 hours): 93%
PB rate (Pre-ovulatory COCs [3]; 100 nM CNP-22 with 4 ng/mL EGF): 15%
delay of EGFR-induced meiotic resumption vs control (Pre-ovulatory COCs [3]; COCs kept under meiotic arrest by CNP): 6 h
fertilization rate, CNP vs Cilostamide [4]: no difference
blastocyst formed per fertilized egg, CNP vs Cilostamide ([4]; day 5): significantly higher
transzonal projections / connectivity between oocytes and cumulus cells [5]: full with transzonal projections; also recorded: kept better the connectivity between oocytes and cumulus cells
percentage of oocytes at the GVBD-stage vs control (Preovulatory COCs [6]; 0.1 nM to 1 μM, 18 hours): No significant differences
maintaining oocytes arrested at the GV stage (Preovulatory COCs [6]; 0.1 nM, 18 hours): suboptimal
oocytes in meiotic arrest (GV rate) (Preovulatory COCs [6]; 1 nM CNP-22, 18 hours): 80%
oocytes extruding the first polar body (PB rate) (Preovulatory COCs [6]; [7]): low proportion or lack
oocytes in meiotic arrest (GV rate) (Preovulatory COCs [6]; 10 nM CNP-22, 18 hours): 98%
oocytes in meiotic arrest (GV rate) (Preovulatory COCs [6]; 50 nM CNP-22, 18 hours): 94%
oocytes in meiotic arrest (GV rate) (Preovulatory COCs [6]; 100 nM CNP-22, 18 hours): 87%
maintaining oocytes arrested at the GV stage (Preovulatory COCs [6]; 1 μM, 18 hours): suboptimal
rate of meiotic arrest in preovulatory oocytes (Preovulatory COCs [6]; dose interval 1 nM to 100 nM): above 80%
oocytes maintained in meiotic arrest (Immature COCs; 1 nM, 10 nM, 25 nM, or 50 nM CNP, oocytes from the smallest size of follicles): ~100%
GV rate (Immature COCs; 25 nM CNP alone, 48 hours): 26%
maintenance of meiotic arrest in immature COCs (Immature COCs; CNP-22 alone, culture up to 48 hours (data not shown)): can maintain meiotic arrest for 24 hours but not for 48 hours

CNP-53: CNP analogue; endogenous form of C-type natriuretic peptide containing a 53-amino acid sequence (DLRVDTKSRAAWARLLQEHPNARKYKGANKKGLSKGCFGLKLDRIGSMSGLGC; ends and bridges not checked; cysteine pairing not given here; UniProt P23582 74-126, looked up)
percentage of oocytes at the GVBD-stage vs control (Preovulatory COCs [1]; 0.1 nM to 1 μM, 18 hours): No significant differences
maintaining oocytes arrested at the GV stage (Preovulatory COCs [1]; 0.1 nM, 18 hours): suboptimal
oocytes under meiotic arrest (GV rate) (Preovulatory COCs [1]; 1 nM CNP-53, 18 hours): 66%
proportion of oocytes extruding the first polar body vs control without CNP (Preovulatory COCs [1]; [7]): significant different
oocytes under meiotic arrest (GV rate) (Preovulatory COCs [1]; 10 nM CNP-53, 18 hours): 98%
oocytes under meiotic arrest (GV rate) (Preovulatory COCs [1]; 50 nM CNP-53, 18 hours): 72%
oocytes under meiotic arrest (GV rate) (Preovulatory COCs [1]; 100 nM CNP-53, 18 hours): 69%
maintaining oocytes arrested at the GV stage (Preovulatory COCs [1]; 1 μM, 18 hours): suboptimal
